The source of these data is ChEMBL document CHEMBL5042487, “Design, synthesis, and biological activity evaluation of 2-(benzo[b]thiophen-2-yl)-4-phenyl-4,5-dihydrooxazole derivatives as broad-spectrum antifungal agents” (Eur J Med Chem, 2022).

Format in all cases: functional
The test system of one experiment is Candida tropicalis. Put plainly: Antifungal activity against Candida tropicalis GIM 2.183 assessed as inhibition of fungal growth by NCCLS protocol based method.
In the next experiment the test system is Cryptococcus neoformans. The experiment is described as follows: Antifungal activity against Cryptococcus neoformans GIM 2.209 assessed as inhibition of fungal growth by NCCLS protocol based method.
For another experiment, the system named is Aspergillus fumigatus. The experiment is described as follows: Antifungal activity against Aspergillus fumigatus CGMCC 3.7795 assessed as inhibition of fungal growth by NCCLS protocol based method.
Experiment [1] relates to Candida albicans. The experiment is described as follows: Antifungal activity against Candida albicans GIM 2.194 assessed as inhibition of fungal growth by NCCLS protocol based method.
Experiment [2] concerns Candida albicans. The experiment is described as follows: Antifungal activity against Candida albicans SC5314 assessed as inhibition of fungal growth by NCCLS protocol based method.

≈ marks a conversion by molar mass, not a printed value.

Turning to `Fc1ccc(C2(Cn3cncn3)COC(c3ccc(-c4ccccc4F)cc3)=N2)cc1` (stereo not given), the minimal inhibitory concentration (MIC) (commonly the lowest concentration that inhibits growth of the organism) with Candida tropicalis was 0.06 µg/mL (≈ 0.144 µM); in the experiment on Cryptococcus neoformans, > 64 µg/mL; in the experiment with Aspergillus fumigatus it was > 64 µg/mL; in the experiment with Candida albicans [1], < 0.03 µg/mL; in the experiment on Candida albicans [2] it was < 0.03 µg/mL.
Take `FC(F)(F)Oc1ccc2cc(C3=NC(Cn4cncn4)(c4ccccc4)CO3)sc2c1` (stereo not given): the minimal inhibitory concentration (MIC) is > 16 µg/mL with Candida tropicalis; > 64 µg/mL in the experiment with Cryptococcus neoformans; > 64 µg/mL in the experiment on Aspergillus fumigatus; > 16 µg/mL in the experiment on Candida albicans [1]; 0.06 µg/mL (≈ 0.135 µM) in the experiment with Candida albicans [2].
For the compound `N#Cc1ccc2sc(C3=NC(Cn4cncn4)(c4ccccc4)CO3)cc2c1` (stereo not given), the MIC with Candida tropicalis is > 16 µg/mL; with Cryptococcus neoformans, > 64 µg/mL; with Aspergillus fumigatus, > 64 µg/mL; with Candida albicans [1] it was > 16 µg/mL; in the experiment with Candida albicans [2], > 16 µg/mL.
In the case of `c1ccc(COc2ccc(C3=NC(Cn4cncn4)(c4ccccc4)CO3)cc2)cc1` (stereo not given), the MIC in the experiment with Candida tropicalis was > 64 µg/mL; with Cryptococcus neoformans, > 64 µg/mL; in the experiment on Aspergillus fumigatus it was > 64 µg/mL; with Candida albicans [1] it was > 16 µg/mL; in the experiment on Candida albicans [2] it was > 16 µg/mL.
On to `Clc1ccc2sc(C3=NC(Cn4cncn4)(c4ccccc4)CO3)cc2c1` (stereo not given), for which the MIC was > 16 µg/mL with Candida tropicalis; > 64 µg/mL in the experiment on Cryptococcus neoformans; 32 µg/mL (≈ 81 µM) with Aspergillus fumigatus; > 16 µg/mL in the experiment on Candida albicans [1]; 0.5 µg/mL (≈ 1.27 µM) in the experiment on Candida albicans [2].
Take `c1ccc(C2(Cn3cncn3)COC(c3cc4ccccc4o3)=N2)cc1` (stereo not given): the MIC is > 64 µg/mL in the experiment with Candida tropicalis; 2 µg/mL (≈ 5.81 µM) in the experiment on Cryptococcus neoformans; 8 µg/mL (≈ 23.2 µM) in the experiment with Aspergillus fumigatus; > 16 µg/mL with Candida albicans [1]; > 16 µg/mL in the experiment with Candida albicans [2].
Turning to `FC(F)(F)Oc1ccc2sc(C3=NC(Cn4cncn4)(c4ccccc4)CO3)cc2c1` (stereo not given), the MIC was 0.25 µg/mL (≈ 0.563 µM) with Candida tropicalis; > 64 µg/mL with Cryptococcus neoformans; > 64 µg/mL in the experiment on Aspergillus fumigatus; 0.06 µg/mL (≈ 0.135 µM) with Candida albicans [1]; < 0.03 µg/mL in the experiment on Candida albicans [2].
Consider `c1ccc(-c2nnc(-c3ccc(C4=NC(Cn5cncn5)(c5ccccc5)CO4)cc3)o2)cc1` (stereo not given), for which the MIC in the experiment with Candida tropicalis was > 64 µg/mL; in the experiment with Cryptococcus neoformans, > 64 µg/mL; with Aspergillus fumigatus, > 64 µg/mL; with Candida albicans [1], > 16 µg/mL; in the experiment with Candida albicans [2], > 16 µg/mL.
Consider `c1ccc(-c2ccc(C3=NC(Cn4cncn4)(c4ccccc4)CO3)s2)cc1` (stereo not given), for which the MIC with Candida tropicalis was > 64 µg/mL; in the experiment with Cryptococcus neoformans it was 0.5 µg/mL (≈ 1.29 µM); in the experiment on Aspergillus fumigatus, 4 µg/mL (≈ 10.3 µM); with Candida albicans [1], > 16 µg/mL; with Candida albicans [2], > 16 µg/mL.
With `c1ccc(C2(Cn3cncn3)COC(c3nc4ccccc4s3)=N2)cc1` (stereo not given), the MIC in the experiment on Candida tropicalis is > 64 µg/mL; in the experiment on Cryptococcus neoformans, > 64 µg/mL; with Aspergillus fumigatus, > 64 µg/mL; in the experiment on Candida albicans [1], > 16 µg/mL; in the experiment with Candida albicans [2] it was > 16 µg/mL.
For the compound `CC(=O)N1CCN(c2ccc(C3=NC(Cn4cncn4)(c4ccccc4)CO3)cc2)CC1` (stereo not given), the minimum inhibitory concentration (MIC) with Candida tropicalis is > 64 µg/mL; with Cryptococcus neoformans, > 64 µg/mL; with Aspergillus fumigatus it was > 64 µg/mL; in the experiment with Candida albicans [1], > 16 µg/mL; in the experiment on Candida albicans [2], > 16 µg/mL.
Regarding `Brc1ccc2sc(C3=NC(Cn4cncn4)(c4ccccc4)CO3)cc2c1` (stereo not given), the minimal inhibitory concentration (MIC) was > 16 µg/mL in the experiment with Candida tropicalis; > 64 µg/mL in the experiment on Cryptococcus neoformans; > 64 µg/mL in the experiment on Aspergillus fumigatus; > 16 µg/mL in the experiment with Candida albicans [1]; > 16 µg/mL in the experiment with Candida albicans [2].
For the compound `c1ccc(C2(Cn3cncn3)COC(c3ccc(-c4ccoc4)cc3)=N2)cc1` (stereo not given), the minimum inhibitory concentration (MIC) in the experiment with Candida tropicalis is < 0.125 µg/mL; in the experiment with Cryptococcus neoformans, 0.25 µg/mL (≈ 0.675 µM); in the experiment with Aspergillus fumigatus it was 0.5 µg/mL (≈ 1.35 µM); in the experiment with Candida albicans [1] it was 0.5 µg/mL (≈ 1.35 µM); with Candida albicans [2], < 0.03 µg/mL.
Regarding `Fc1ccc2cc(C3=NC(Cn4cncn4)(c4ccccc4)CO3)sc2c1` (stereo not given), the MIC in the experiment on Candida tropicalis was 4 µg/mL (≈ 10.6 µM); in the experiment on Cryptococcus neoformans it was 4 µg/mL (≈ 10.6 µM); in the experiment on Aspergillus fumigatus, 2 µg/mL (≈ 5.28 µM); with Candida albicans [1], 1 µg/mL (≈ 2.64 µM); in the experiment on Candida albicans [2], 0.25 µg/mL (≈ 0.661 µM).
On to `Fc1ccc2sc(C3=NC(Cn4cncn4)(c4ccccc4)CO3)cc2c1` (stereo not given), for which the minimal inhibitory concentration (MIC) in the experiment with Candida tropicalis is > 16 µg/mL; in the experiment on Cryptococcus neoformans, 16 µg/mL (≈ 42.3 µM); in the experiment with Aspergillus fumigatus it was 1 µg/mL (≈ 2.64 µM); in the experiment on Candida albicans [1] it was > 16 µg/mL; in the experiment with Candida albicans [2] it was 1 µg/mL (≈ 2.64 µM).
In the case of `O=C(Nc1ccc(C2=NC(Cn3cncn3)(c3ccccc3)CO2)cc1)c1ccccc1` (stereo not given), the MIC is > 64 µg/mL in the experiment with Candida tropicalis; > 64 µg/mL with Cryptococcus neoformans; > 64 µg/mL in the experiment on Aspergillus fumigatus; 8 µg/mL (≈ 18.9 µM) with Candida albicans [1]; > 16 µg/mL with Candida albicans [2].
Turning to `N#Cc1ccc2cc(C3=NC(Cn4cncn4)(c4ccccc4)CO3)sc2c1` (stereo not given), the MIC in the experiment with Candida tropicalis was > 16 µg/mL; with Cryptococcus neoformans, > 64 µg/mL; in the experiment with Aspergillus fumigatus, > 64 µg/mL; in the experiment on Candida albicans [1] it was > 16 µg/mL; in the experiment with Candida albicans [2] it was > 16 µg/mL.
In the case of `c1ccc(-c2cc(C3=NC(Cn4cncn4)(c4ccccc4)CO3)no2)cc1` (stereo not given), the MIC in the experiment on Candida tropicalis is > 64 µg/mL; in the experiment with Cryptococcus neoformans, > 64 µg/mL; in the experiment on Aspergillus fumigatus, 2 µg/mL (≈ 5.39 µM); with Candida albicans [1] it was > 16 µg/mL; in the experiment on Candida albicans [2], > 16 µg/mL.
In the case of `c1ccc(C2=NC(Cn3cncn3)(c3ccccc3)CO2)cc1` (stereo not given), the MIC is > 64 µg/mL in the experiment on Candida tropicalis; > 64 µg/mL with Cryptococcus neoformans; > 64 µg/mL in the experiment with Aspergillus fumigatus; > 16 µg/mL in the experiment on Candida albicans [1]; > 16 µg/mL in the experiment on Candida albicans [2].
For the compound `FC(F)(F)c1ccc2cc(C3=NC(Cn4cncn4)(c4ccccc4)CO3)sc2c1` (stereo not given), the MIC in the experiment on Candida tropicalis is 8 µg/mL (≈ 18.7 µM); in the experiment on Cryptococcus neoformans it was 16 µg/mL (≈ 37.3 µM); in the experiment on Aspergillus fumigatus, > 64 µg/mL; in the experiment on Candida albicans [1], > 16 µg/mL; with Candida albicans [2] it was 0.25 µg/mL (≈ 0.584 µM).
The matching figures for `c1ccc(C2(Cn3cncn3)COC(c3cc4ccccc4s3)=N2)cc1` (stereo not given): 2 µg/mL (≈ 5.55 µM), 0.25 µg/mL (≈ 0.694 µM), 1 µg/mL (≈ 2.77 µM), 1 µg/mL (≈ 2.77 µM) and 0.25 µg/mL (≈ 0.694 µM).
Regarding `c1ccc(C2(Cn3cncn3)COC(c3ccc4ccccc4c3)=N2)cc1` (stereo not given), the MIC was > 64 µg/mL in the experiment with Candida tropicalis; 1 µg/mL (≈ 2.82 µM) in the experiment with Cryptococcus neoformans; 4 µg/mL (≈ 11.3 µM) in the experiment on Aspergillus fumigatus; > 16 µg/mL with Candida albicans [1]; > 16 µg/mL in the experiment on Candida albicans [2].
As to `Fc1ccc(C2(Cn3cncn3)COC(c3cc4ccc(Cl)cc4s3)=N2)c(F)c1` (stereo not given), the MIC in the experiment on Candida tropicalis is 0.06 µg/mL (≈ 0.139 µM); with Cryptococcus neoformans, 0.25 µg/mL (≈ 0.58 µM); with Aspergillus fumigatus, > 64 µg/mL; in the experiment with Candida albicans [1] it was < 0.03 µg/mL; with Candida albicans [2], 0.06 µg/mL (≈ 0.139 µM).
In the case of `Clc1cccc(C2(Cn3cncn3)COC(c3cc4ccc(Br)cc4s3)=N2)c1` (stereo not given), the MIC in the experiment on Candida tropicalis worked out at 0.125 µg/mL (≈ 0.264 µM); in the experiment on Cryptococcus neoformans, 0.5 µg/mL (≈ 1.06 µM); in the experiment with Aspergillus fumigatus, 16 µg/mL (≈ 33.8 µM); with Candida albicans [1], 0.06 µg/mL (≈ 0.127 µM); in the experiment on Candida albicans [2] it was 0.06 µg/mL (≈ 0.127 µM).
As to `Brc1ccc2cc(C3=NC(Cn4cncn4)(c4ccccc4)CO3)sc2c1` (stereo not given), the MIC is 0.06 µg/mL (≈ 0.137 µM) with Candida tropicalis; 0.25 µg/mL (≈ 0.569 µM) in the experiment with Cryptococcus neoformans; 0.5 µg/mL (≈ 1.14 µM) in the experiment on Aspergillus fumigatus; 0.06 µg/mL (≈ 0.137 µM) with Candida albicans [1]; < 0.03 µg/mL in the experiment on Candida albicans [2].
`Clc1ccc2cc(C3=NC(Cn4cncn4)(c4ccccc4)CO3)sc2c1` (stereo not given): the MIC was 0.06 µg/mL (≈ 0.152 µM) in the experiment on Candida tropicalis; 0.25 µg/mL (≈ 0.633 µM) with Cryptococcus neoformans; 0.5 µg/mL (≈ 1.27 µM) in the experiment with Aspergillus fumigatus; 0.06 µg/mL (≈ 0.152 µM) in the experiment on Candida albicans [1]; < 0.03 µg/mL in the experiment with Candida albicans [2].
On to `FC(F)(F)c1ccc2sc(C3=NC(Cn4cncn4)(c4ccccc4)CO3)cc2c1` (stereo not given), for which the MIC was > 16 µg/mL with Candida tropicalis; > 64 µg/mL with Cryptococcus neoformans; > 64 µg/mL in the experiment on Aspergillus fumigatus; > 16 µg/mL with Candida albicans [1]; 0.5 µg/mL (≈ 1.17 µM) with Candida albicans [2].
`Clc1cccc(C2(Cn3cncn3)COC(c3cc4ccc(Cl)cc4s3)=N2)c1` (stereo not given): the MIC with Candida tropicalis is 0.125 µg/mL (≈ 0.291 µM); in the experiment with Cryptococcus neoformans, 0.5 µg/mL (≈ 1.16 µM); in the experiment on Aspergillus fumigatus, 16 µg/mL (≈ 37.3 µM); in the experiment on Candida albicans [1], 0.06 µg/mL (≈ 0.14 µM); in the experiment with Candida albicans [2] it was 0.06 µg/mL (≈ 0.14 µM).
